Measurements reported in BindingDB's records for doi:10.1021/jm00115a012 (Research Biochemicals, 1991).

Key:
D(2) dopamine receptor [1] = biological target: T1, D(2) dopamine receptor (Homo sapiens, UniProt P14416); test: ChEBML_59152
Excerpt: (§1) Binding affinity against dopamine receptor D2 by using [3H]spiperone as radioligand in caudate-putamen of monkey

D(2) dopamine receptor [2] = biological target: T1, D(2) dopamine receptor; test: as §1
D(1A) dopamine receptor = test: Binding affinity against dopamine receptor D1 by using [3H]-SCH- 23390 as radioligand in caudate-putamen of monkey

T1 sequence (P14416 whole entry): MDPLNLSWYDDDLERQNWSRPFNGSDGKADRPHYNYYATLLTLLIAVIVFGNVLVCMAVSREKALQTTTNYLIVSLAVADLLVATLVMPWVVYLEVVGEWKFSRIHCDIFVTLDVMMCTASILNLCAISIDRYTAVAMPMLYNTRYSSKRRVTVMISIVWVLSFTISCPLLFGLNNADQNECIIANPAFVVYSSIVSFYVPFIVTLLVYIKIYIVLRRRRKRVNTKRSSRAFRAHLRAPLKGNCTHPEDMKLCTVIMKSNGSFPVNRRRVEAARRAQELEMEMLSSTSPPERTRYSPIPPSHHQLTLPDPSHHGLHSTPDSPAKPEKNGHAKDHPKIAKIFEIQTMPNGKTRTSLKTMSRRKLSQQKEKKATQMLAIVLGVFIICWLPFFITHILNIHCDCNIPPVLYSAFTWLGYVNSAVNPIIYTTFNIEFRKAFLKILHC

Compound | Ki (D(2) dopamine receptor [1]) | Ki (D(2) dopamine receptor [2]) | Ki (D(1A) dopamine receptor)
CCCN(CCc1ccc(C)cc1)[C@@H]1CCc2c(O)cccc2C1 | – | 170 nM | 4900 nM
CCCN(CCc1ccc(NC(=S)Nc2ccc3c(c2)C(=O)OC32c3ccc(O)cc3Oc3cc(O)ccc32)cc1)C1CCc2c(O)cccc2C1 (racemic) | 7 nM | – | –
CCCN(CCc1ccc(N)cc1)C1CCc2c(O)cccc2C1 (racemic) | – | 6.8 nM | 710 nM
O=C(CCCN1CCC2(CC1)C(=O)N(CCc1ccc(Nc3ccc([N+](=O)[O-])c4n[o+][n-]c34)cc1)CN2c1ccccc1)c1ccc(F)cc1 | 0.66 nM | – | –
CCCN(CCc1ccc(NC(=S)Nc2ccc3c(c2)C(=O)OC32c3ccc(O)cc3Oc3cc(O)ccc32)cc1)[C@H]1CCc2c(O)cccc2C1 | 4.8 nM | – | –
CCCN(CCc1ccc(NC(=S)Nc2ccc3c(c2)C(=O)OC32c3ccc(O)cc3Oc3cc(O)ccc32)cc1)[C@@H]1CCc2c(O)cccc2C1 | – | 110 nM | –
CCCN(CCc1ccc(C)cc1)[C@H]1CCc2c(O)cccc2C1 | – | 6.7 nM | 270 nM

Continued, values first:

Ki (D(2) dopamine receptor [1]) | Ki (D(2) dopamine receptor [2]) | Ki (D(1A) dopamine receptor) | Compound
710 nM | – | – | CN1CCc2cc(Br)c(O)cc2C(c2ccc(Nc3ccc([N+](=O)[O-])c4n[o+][n-]c34)cc2)C1 (stereo not given)
– | 0.45 nM | – | CCCN(CCc1ccc(Nc2ccc([N+](=O)[O-])c3n[o+][n-]c23)cc1)C1CCc2c(O)cccc2C1 (stereo not given)
> 5000 nM | – | – | CN1CCc2cc(Br)c(O)cc2C(c2ccc(NC(=S)Nc3ccc4c(c3)C(=O)OC43c4ccc(O)cc4Oc4cc(O)ccc43)cc2)C1 (stereo not given)
1600 nM | – | – | CN1CCc2cc(Br)c(O)cc2C(c2ccc(N)cc2)C1 (stereo not given)
– | – | 10000 nM | O=C1OC2(c3ccc(O)cc3Oc3cc(O)ccc32)c2ccc(NC(=S)Nc3ccc(C4CNCCc5cc(O)c(O)cc54)cc3)cc21 (stereo not given)
